Assay results as given in PubChem BioAssay (NCI).
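Five compound concentrations were applied to cells in 96-well plates for 48 hours; endpoints were derived by simple linear interpolation of the resulting dose-response curve. GI50 = concentration required for 50% inhibition of growth. Definition used: TGI = concentration required for complete inhibition of growth.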

How the values were obtained:
Assay in all cases: DTP human tumour cell line panel, 48 h
TK-10 renal = test system: TK-10 renal
MDA-MB-468 breast = test system: MDA-MB-468 breast
UACC-257 melanoma = test system: UACC-257 melanoma
HOP-62 NSCLC = test system: HOP-62 NSCLC
MDA-MB-435 = test system: MDA-MB-435
MCF7 breast = test system: MCF7 breast
CAKI-1 renal = test system: CAKI-1 renal
HCC-2998 colon = test system: HCC-2998 colon
NCI-H226 lung = test system: NCI-H226 lung
SK-OV-3 ovarian = test system: SK-OV-3 ovarian
HOP-92 NSCLC = test system: HOP-92 NSCLC
SW-620 colon = test system: SW-620 colon
NCI-H460 lung = test system: NCI-H460 lung
ACHN renal = test system: ACHN renal
SR leukemia = test system: SR leukemia
A498 renal = test system: A498 renal
PC-3 prostate = test system: PC-3 prostate
HCT-116 colon = test system: HCT-116 colon
NCI-H23 lung = test system: NCI-H23 lung
OVCAR-4 ovarian = test system: OVCAR-4 ovarian
BT-549 breast = test system: BT-549 breast
OVCAR-3 ovarian = test system: OVCAR-3 ovarian
HL-60(TB) leukemia = test system: HL-60(TB) leukemia
HT29 colon = test system: HT29 colon
SK-MEL-28 melanoma = test system: SK-MEL-28 melanoma
MOLT-4 leukemia = test system: MOLT-4 leukemia
IGROV1 ovarian = test system: IGROV1 ovarian
NCI/ADR-RES ovarian = test system: NCI/ADR-RES ovarian
MDA-MB-231 breast = test system: MDA-MB-231 breast
UACC-62 melanoma = test system: UACC-62 melanoma
RXF 393 renal = test system: RXF 393 renal
T-47D breast = test system: T-47D breast
LOX IMVI melanoma = test system: LOX IMVI melanoma
SF-295 CNS = test system: SF-295 CNS
SF-268 CNS = test system: SF-268 CNS
HCT-15 colon = test system: HCT-15 colon
786-0 renal = test system: 786-0 renal
SK-MEL-5 melanoma = test system: SK-MEL-5 melanoma
SN12C renal = test system: SN12C renal
A549 NSCLC = test system: A549 NSCLC
UO-31 renal = test system: UO-31 renal
SNB-19 CNS = test system: SNB-19 CNS
COLO 205 colon = test system: COLO 205 colon
K-562 leukemia = test system: K-562 leukemia
OVCAR-8 ovarian = test system: OVCAR-8 ovarian
MALME-3M melanoma = test system: MALME-3M melanoma
U251 CNS = test system: U251 CNS
HS 578T breast = test system: HS 578T breast
SNB-75 CNS = test system: SNB-75 CNS
SF-539 CNS = test system: SF-539 CNS
M14 melanoma = test system: M14 melanoma
EKVX NSCLC = test system: EKVX NSCLC
RPMI-8226 leukemia = test system: RPMI-8226 leukemia
CCRF-CEM leukemia = test system: CCRF-CEM leukemia
OVCAR-5 ovarian = test system: OVCAR-5 ovarian
KM12 colon = test system: KM12 colon
SK-MEL-2 melanoma = test system: SK-MEL-2 melanoma
DU-145 prostate = test system: DU-145 prostate
NCI-H522 lung = test system: NCI-H522 lung

Molecule `CN1CCN(c2ccc3c(c2)nc(NNC(=O)c2ncccn2)c2cccn23)CC1` has a GI50 (TK-10 renal) of 0.489 µM, a TGI (TK-10 renal) of 3.05 µM and a GI50 (MDA-MB-468 breast) of 0.408 µM. It also gave a TGI (MDA-MB-468 breast) of 1.82 µM, a GI50 (UACC-257 melanoma) of 2.28 µM and a TGI (UACC-257 melanoma) of 6.25 µM. For the same molecule, the GI50 (HOP-62 NSCLC) was 0.453 µM, the TGI (HOP-62 NSCLC) was 3.2 µM and the GI50 (MDA-MB-435) was 1.78 µM. The TGI (MDA-MB-435) was 13.5 µM, the GI50 (MCF7 breast) was 1.98 µM and the TGI (MCF7 breast) was 9.75 µM. It also gave a GI50 (CAKI-1 renal) of 0.782 µM, a TGI (CAKI-1 renal) of 7.62 µM and a GI50 (HCC-2998 colon) of 0.706 µM. It also gave a TGI (HCC-2998 colon) of 3 µM, a GI50 (NCI-H226 lung) of 0.929 µM and a TGI (NCI-H226 lung) of 2.63 µM. The GI50 (SK-OV-3 ovarian) was 0.459 µM, the TGI (SK-OV-3 ovarian) was 1.83 µM and the GI50 (HOP-92 NSCLC) was 0.482 µM. It also gave a TGI (HOP-92 NSCLC) of 2.46 µM, a GI50 (SW-620 colon) of 0.855 µM and a TGI (SW-620 colon) of 3.83 µM. For the same molecule, the GI50 (NCI-H460 lung) was 1.22 µM, the TGI (NCI-H460 lung) was 10.5 µM and the GI50 (ACHN renal) was 0.712 µM. It also gave a TGI (ACHN renal) of 6.01 µM, a GI50 (SR leukemia) of 0.433 µM and a TGI (SR leukemia) of 11.6 µM. It also gave a GI50 (A498 renal) of 1.72 µM, a TGI (A498 renal) of 3.32 µM and a GI50 (PC-3 prostate) of 0.344 µM. For the same molecule, the TGI (PC-3 prostate) was 4.12 µM, the GI50 (HCT-116 colon) was 0.347 µM and the TGI (HCT-116 colon) was 2.61 µM. For the same molecule, the GI50 (NCI-H23 lung) was 1.89 µM, the TGI (NCI-H23 lung) was 10.1 µM and the GI50 (OVCAR-4 ovarian) was 0.725 µM. The TGI (OVCAR-4 ovarian) was 4.1 µM, the GI50 (BT-549 breast) was 0.856 µM and the TGI (BT-549 breast) was 2.82 µM. It also gave a GI50 (OVCAR-3 ovarian) of 0.704 µM, a TGI (OVCAR-3 ovarian) of 4.42 µM and a GI50 (HL-60(TB) leukemia) of 0.556 µM. The TGI (HL-60(TB) leukemia) was 4.82 µM, the GI50 (HT29 colon) was 0.628 µM and the TGI (HT29 colon) was 2.34 µM. The GI50 (SK-MEL-28 melanoma) was 0.849 µM, the TGI (SK-MEL-28 melanoma) was 9.03 µM and the GI50 (MOLT-4 leukemia) was 0.435 µM. It also gave a TGI (MOLT-4 leukemia) of 15.6 µM, a GI50 (IGROV1 ovarian) of 1.67 µM and a TGI (IGROV1 ovarian) of 11 µM. For the same molecule, the GI50 (NCI/ADR-RES ovarian) was 2.57 µM, the TGI (NCI/ADR-RES ovarian) was 9.44 µM and the GI50 (MDA-MB-231 breast) was 0.902 µM. The TGI (MDA-MB-231 breast) was 3.99 µM, the GI50 (UACC-62 melanoma) was 0.828 µM and the TGI (UACC-62 melanoma) was 3.45 µM. The GI50 (RXF 393 renal) was 1.43 µM, the TGI (RXF 393 renal) was 3.99 µM and the GI50 (T-47D breast) was 1.66 µM. For the same molecule, the TGI (T-47D breast) was 5.78 µM, the GI50 (LOX IMVI melanoma) was 0.383 µM and the TGI (LOX IMVI melanoma) was 2.64 µM. For the same molecule, the GI50 (SF-295 CNS) was 0.622 µM, the TGI (SF-295 CNS) was 2.96 µM and the GI50 (SF-268 CNS) was 0.594 µM. It also gave a TGI (SF-268 CNS) of 11.9 µM, a GI50 (HCT-15 colon) of 0.762 µM and a TGI (HCT-15 colon) of 5.25 µM. For the same molecule, the GI50 (786-0 renal) was 0.795 µM, the TGI (786-0 renal) was 2.11 µM and the GI50 (SK-MEL-5 melanoma) was 1.16 µM. For the same molecule, the TGI (SK-MEL-5 melanoma) was 3.17 µM, the GI50 (SN12C renal) was 1.39 µM and the TGI (SN12C renal) was 10.8 µM. It also gave a GI50 (A549 NSCLC) of 1.7 µM, a TGI (A549 NSCLC) of 11.3 µM and a GI50 (UO-31 renal) of 0.677 µM. The TGI (UO-31 renal) was 4.07 µM, the GI50 (SNB-19 CNS) was 0.966 µM and the TGI (SNB-19 CNS) was 12.5 µM. For the same molecule, the GI50 (COLO 205 colon) was 0.476 µM, the TGI (COLO 205 colon) was 1.72 µM and the GI50 (K-562 leukemia) was 1.88 µM. It also gave a TGI (K-562 leukemia) of over 32.4 µM, a GI50 (OVCAR-8 ovarian) of 0.655 µM and a TGI (OVCAR-8 ovarian) of 2.38 µM. It also gave a GI50 (MALME-3M melanoma) of 1.38 µM, a TGI (MALME-3M melanoma) of 4.29 µM and a GI50 (U251 CNS) of 0.514 µM. For the same molecule, the TGI (U251 CNS) was 3.94 µM, the GI50 (HS 578T breast) was 3.01 µM and the TGI (HS 578T breast) was 34.5 µM. The GI50 (SNB-75 CNS) was 0.61 µM, the TGI (SNB-75 CNS) was 11.4 µM and the GI50 (SF-539 CNS) was 1.09 µM. It also gave a TGI (SF-539 CNS) of 4.2 µM, a GI50 (M14 melanoma) of 0.611 µM and a TGI (M14 melanoma) of 3 µM. For the same molecule, the GI50 (EKVX NSCLC) was 0.529 µM, the TGI (EKVX NSCLC) was 3.96 µM and the GI50 (RPMI-8226 leukemia) was 2.98 µM. The TGI (RPMI-8226 leukemia) was 13.3 µM, the GI50 (CCRF-CEM leukemia) was 0.224 µM and the TGI (CCRF-CEM leukemia) was 2.1 µM. The GI50 (OVCAR-5 ovarian) was 1.37 µM, the TGI (OVCAR-5 ovarian) was 5.8 µM and the GI50 (KM12 colon) was 0.63 µM. The TGI (KM12 colon) was 12.8 µM, the GI50 (SK-MEL-2 melanoma) was 1.28 µM and the TGI (SK-MEL-2 melanoma) was 4.21 µM. It also gave a GI50 (DU-145 prostate) of 1.25 µM, a TGI (DU-145 prostate) of 11 µM and a GI50 (NCI-H522 lung) of 0.927 µM. It also gave a TGI (NCI-H522 lung) of 5.31 µM.
